For test [1], the system named is ASGPR-1. Briefly: Inhibition of svL4 binding to ASGPR-1. On the set-up: species or system human. The following applies: 75 μM asialofetuin, 0.2 μM svL4. As to the method:
Solid-phase binding assays were performed with streptavidin-, protein A/G-, or Nickel-coated microtiter plates (Pierce). His-tagged or Fc-fusion recombinant receptors (R&D Systems, Minneapolis, MN) were reconstituted in PBS. Sufficient receptors were added to wells to saturate the coating. His-tagged receptors were added to each well at a 5-fold excess over the stated capacity of the Ni coating to minimize non-specific binding of the peptide. […] The wells were washed four times with binding buffer and then incubated with 50 μL of 1 μg/mL streptavidin conjugated with peroxidase (Sigma-Aldrich) for 1 h. The wells were washed five times with binding buffer and 50 μL of peroxidase substrate (1-Step™ Ultra TMB, Pierce) were added. After several minutes to allow color development, the reaction was stopped with 50 μL 1 M H3PO4 and absorbance was measured at 450 nm. Bound streptavidin was quantitated by the specific activity of peroxidase (absorbance/ng protein conjugate/min) under the conditions of the assay.
Corresponding values for binding of svL4 to CLEC10A and ASGPR-1 of 0.24 ± 0.04 μM and 0.21 ± 0.03 μM, respectively, were obtained.

The test system of test [2] is ASGPR-1. The following applies: ASGPR-1; ref [43]; cited from earlier work. How it is done:
The type II C-type lectin asialoglycoprotein receptor-1 (ASGPR-1, Ashwell-Morell receptor, CLEC4H1) on hepatic cells also binds GalNAc-containing structures. ASGPR-1 has a 60-fold greater preference for GalNAc over Gal. Each healthy rat hepatocyte expresses 4 to 5 × 10^5 molecules of ASGPR-1 as binding sites for asialo-orosomucoid or 1.8 × 10^6 molecules as determined by an ASGPR-1-targeted antibody, which provides a surface concentration for the receptor of 0.8 to 1 μM. […] Corresponding values for binding of svL4 to CLEC10A and ASGPR-1 of 0.24 ± 0.04 μM and 0.21 ± 0.03 μM, respectively, were obtained. […] Asialofetuin, a multi-glycosylated pro ...

As a reminder, the IC50 is the concentration needed to halve the response being measured.

For “Asialofetuin: multi-glycosylated protein”, in the test with ASGPR-1 [1], the “inhibition of binding of svL4 to ASGPR-1” value stood at 53%. Further, in the test with ASGPR-1 [2], the IC50 is 45.6 ± 2.7 µM.

These data come from paper PMC5905120, “An innovative immunotherapeutic strategy for ovarian cancer: CLEC10A and glycomimetic peptides” (Journal for Immunotherapy of Cancer, 2018).
